These results are taken from ChEMBL document CHEMBL4725370, “Discovery of Proteolysis-Targeting Chimera Molecules that Selectively Degrade the IRAK3 Pseudokinase” (J Med Chem, 2020).

The term IC50 denotes the midpoint of a concentration-inhibition curve. By inhibition is commonly meant the change of the read-out against control, counted positive when it falls. Read a high inhibition as strong suppression. The logD is the decadic logarithm of the distribution of all forms, ionised or not, between an organic phase and buffer at a given pH. Low values mean a more hydrophilic compound, high ones a more lipophilic compound.

Each structure is given as a SMILES string. Active and inactive are the calls of the source. The rule behind the calls is not given here.

One data set addresses CDK8/Cyclin C (Homo sapiens, UniProt P49336). Kind of data set: Inhibition of CDK8/cyclin C (unknown origin). The data set is classed as protein-complex assay.
The target in data set [1] is T1, Serine/threonine-protein kinase haspin (Homo sapiens, UniProt Q8TF76).
T1 sequence (Q8TF76 whole entry): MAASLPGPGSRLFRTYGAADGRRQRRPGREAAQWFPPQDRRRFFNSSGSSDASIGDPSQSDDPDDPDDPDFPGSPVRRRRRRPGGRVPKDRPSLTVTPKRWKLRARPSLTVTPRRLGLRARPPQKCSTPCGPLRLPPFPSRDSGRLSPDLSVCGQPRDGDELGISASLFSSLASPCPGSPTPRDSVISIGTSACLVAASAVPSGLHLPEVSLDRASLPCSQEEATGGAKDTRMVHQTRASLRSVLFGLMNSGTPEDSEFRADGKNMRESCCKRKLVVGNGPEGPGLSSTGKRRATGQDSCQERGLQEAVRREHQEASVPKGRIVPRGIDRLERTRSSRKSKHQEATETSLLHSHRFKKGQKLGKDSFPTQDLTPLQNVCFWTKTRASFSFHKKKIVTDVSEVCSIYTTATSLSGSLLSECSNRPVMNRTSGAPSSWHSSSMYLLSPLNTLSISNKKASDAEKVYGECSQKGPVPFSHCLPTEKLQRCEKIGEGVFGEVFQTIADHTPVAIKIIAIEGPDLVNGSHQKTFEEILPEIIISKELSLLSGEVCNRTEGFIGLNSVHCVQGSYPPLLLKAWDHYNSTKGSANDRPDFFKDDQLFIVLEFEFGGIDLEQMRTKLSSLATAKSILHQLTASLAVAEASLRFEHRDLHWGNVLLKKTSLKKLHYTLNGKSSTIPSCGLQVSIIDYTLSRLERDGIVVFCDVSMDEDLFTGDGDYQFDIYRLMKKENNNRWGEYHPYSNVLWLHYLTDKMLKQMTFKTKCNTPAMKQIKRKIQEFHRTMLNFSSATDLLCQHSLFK
In words: Displacement of polymer supported probe 25 binding to GSG2 in human THP-1 cell lysates preincubated for 45 mins under shaking condition followed by probe addition and measured after 30 mins by mass spectrometry based chemoproteomic analysis. The class given is subcellular. Conditions: read-out: Kd(app).

In data set [2] the target is T2, Interleukin-1 receptor-associated kinase 1 (Homo sapiens, UniProt P51617). Kind of data set: Inhibition of recombinant human N-terminal GST-tagged IRAK1 (194 to 712 residues) expressed in baculovirus expression system using 5-FAM-KKKVSRSGLYRSPSMPENLNRPR-COOH as substrate measured after 240 mins by mobility shift assay.
Data set [3] addresses T3, Protein cereblon/Interleukin-1 receptor-associated kinase 3 (Homo sapiens, UniProt Q9Y616+Q96SW2). Kind of data set: Protac activity at CRBN/IRAK3 in LPS-induced human THP1 cells assessed as induction of IRAK3 degradation at 0.1 uM measured after 6 hrs by HPLC-MS based global proteomic analysis relative to control. The class given is cell-based. Conditions: THP-1.
Data set [4] concerns the target Cereblon/Ikaros (Homo sapiens) (UniProt Q96SW2+Q13422). Kind of data set: Protac activity at CRBN/IKZF1 in LPS-induced human THP1 cells assessed as induction of IKZF1 degradation at 0.1 uM measured after 6 hrs by HPLC-MS based global proteomic analysis. The class given is cell-based. Conditions: THP-1.
For data set [5], the target named is NT-3 growth factor receptor (Homo sapiens, UniProt Q16288). Kind of data set: Inhibition of NTRK3 (unknown origin).
The target in data set [6] is CDK8/Cyclin C (Homo sapiens) (UniProt P49336+P24863). In words: Inhibition of CDK8/cyclin C (unknown origin) at 0.1 uM relative to control. The class given is protein-complex assay.
Data set [7] deals with Cyclin-dependent kinase 19 (Homo sapiens, UniProt Q9BWU1). Kind of data set: Displacement of polymer supported probe 25 binding to CDK11 in human THP-1 cell lysates preincubated for 45 mins under shaking condition followed by probe addition and measured after 30 mins by mass spectrometry based chemoproteomic analysis. The settings on record: read-out: Kd(app). The data set is classed as subcellular.

Data set [8] concerns the target T2, Interleukin-1 receptor-associated kinase 1. In words: Displacement of polymer supported probe 25 binding to IRAK1 in human THP-1 cell lysates preincubated for 45 mins under shaking condition followed by probe addition and measured after 30 mins by mass spectrometry based chemoproteomic analysis. Conditions: read-out: Kd(app). The data set is classed as subcellular.

Data set [9] deals with BDNF/NT-3 growth factors receptor (Homo sapiens) (UniProt Q16620). Kind of data set: Inhibition of NTRK2 (unknown origin) at 0.1 uM relative to control.
Data set [10] deals with THP-1. Kind of data set: Selectivity ratio of Kd(app) for displacement of polymer supported probe 25 binding to CDK11 in human THP-1 cell lysates to Kd(app) for displacement of polymer supported probe 25 binding to IRAK3 in human THP-1 cell lysates.
The target in data set [11] is Cyclin-C/Cyclin-dependent kinase 19 (Homo sapiens, UniProt P24863+Q9BWU1). Kind of data set: Inhibition of CDK11/cyclin C (unknown origin). The data set is classed as protein-complex assay.
For data set [12], the target named is Serine/threonine-protein kinase haspin (Homo sapiens) (UniProt Q8TF76). In words: Inhibition of GSG2 (unknown origin) at 0.1 uM relative to control.
In data set [13] the test system is THP-1. In words: Selectivity ratio of Kd(app) for displacement of polymer supported probe 25 binding to CDK8 in human THP-1 cell lysates to Kd(app) for displacement of polymer supported probe 25 binding to IRAK3 in human THP-1 cell lysates.
Another data set has as its target Protein cereblon (Homo sapiens, UniProt Q96SW2). In words: Inhibition of CRBN (unknown origin).
Data set [14] in a line: Octanol/buffer partition coefficient, log D of the compound at pH 7.4 by shake-flask method. The class given is physicochemical.
Data set [15] concerns the target T3, Protein cereblon/Interleukin-1 receptor-associated kinase 3. Kind of data set: Protac activity at CRBN/IRAK3 in human THP1 cells assessed as induction of IRAK3 degradation at 0.1 uM measured after 24 hrs by Western blot analysis. The class given is cell-based. The settings on record: THP-1. (In general: A western blot detects proteins with antibodies after separation by electrophoresis.)

Data set [16] shares this target. Kind of data set: Protac activity at CRBN/IRAK3 in human THP1 cells assessed as induction of IRAK3 degradation at 0.1 uM measured after 6 hrs in presence of IRAK3 ligand cis-1-(4-(4-((5-Isopropylpyrrolo[2,1-f][1,2,4]triazin-4-yl)amino)-cyclohexyl)piperazin-1-yl)ethanone by Western blot analysis. The class given is cell-based. The settings on record: THP-1.
In data set [17] the target is Cyclin-C/Cyclin-dependent kinase 19 (Homo sapiens) (UniProt Q9BWU1+P24863). In words: Inhibition of CDK11/cyclin C (unknown origin) at 0.1 uM relative to control. The class given is protein-complex assay.
Data set [18] concerns the target Protein cereblon/Eukaryotic peptide chain release factor GTP-binding subunit ERF3A (Homo sapiens) (UniProt Q96SW2+P15170). Kind of data set: Protac activity at CRBN/GSPT1 in LPS-induced human THP1 cells assessed as induction of GSPT1 degradation at 0.1 uM measured after 6 hrs by HPLC-MS based global proteomic analysis. The data set is classed as cell-based. Conditions: THP-1.

Data set [19] deals with T3, Protein cereblon/Interleukin-1 receptor-associated kinase 3. In words: Protac activity at CRBN/IRAK3 in human THP1 cells assessed as induction of IRAK3 degradation at 0.1 uM measured after 6 hrs in presence of NEDD8-activating enzyme inhibitor MLN4924 by Western blot analysis. The data set is classed as cell-based. The settings on record: THP-1.
For data set [20], the target named is T1, Serine/threonine-protein kinase haspin. Kind of data set: Inhibition of GSG2 (unknown origin).
Data set [21] deals with Cyclin-dependent kinase 8 (Homo sapiens, UniProt P49336). In words: Displacement of polymer supported probe 25 binding to CDK8 in human THP-1 cell lysates preincubated for 45 mins under shaking condition followed by probe addition and measured after 30 mins by mass spectrometry based chemoproteomic analysis. The data set is classed as subcellular. Conditions: read-out: Kd(app).
Cyclin-dependent kinase 8, sequence (P49336 whole entry): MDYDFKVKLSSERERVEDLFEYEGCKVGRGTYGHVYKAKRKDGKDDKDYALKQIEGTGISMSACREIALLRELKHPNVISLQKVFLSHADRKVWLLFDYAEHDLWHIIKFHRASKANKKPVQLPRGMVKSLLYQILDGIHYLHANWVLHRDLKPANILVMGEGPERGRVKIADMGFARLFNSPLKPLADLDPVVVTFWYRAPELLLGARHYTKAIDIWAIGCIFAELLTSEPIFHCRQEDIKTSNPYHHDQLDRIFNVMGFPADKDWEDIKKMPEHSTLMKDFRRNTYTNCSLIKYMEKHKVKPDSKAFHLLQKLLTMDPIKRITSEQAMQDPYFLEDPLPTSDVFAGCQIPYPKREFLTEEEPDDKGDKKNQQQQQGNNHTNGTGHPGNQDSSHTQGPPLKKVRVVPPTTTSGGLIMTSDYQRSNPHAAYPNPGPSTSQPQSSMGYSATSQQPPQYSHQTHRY

T3 sequence (Q96SW2 whole entry, looked up): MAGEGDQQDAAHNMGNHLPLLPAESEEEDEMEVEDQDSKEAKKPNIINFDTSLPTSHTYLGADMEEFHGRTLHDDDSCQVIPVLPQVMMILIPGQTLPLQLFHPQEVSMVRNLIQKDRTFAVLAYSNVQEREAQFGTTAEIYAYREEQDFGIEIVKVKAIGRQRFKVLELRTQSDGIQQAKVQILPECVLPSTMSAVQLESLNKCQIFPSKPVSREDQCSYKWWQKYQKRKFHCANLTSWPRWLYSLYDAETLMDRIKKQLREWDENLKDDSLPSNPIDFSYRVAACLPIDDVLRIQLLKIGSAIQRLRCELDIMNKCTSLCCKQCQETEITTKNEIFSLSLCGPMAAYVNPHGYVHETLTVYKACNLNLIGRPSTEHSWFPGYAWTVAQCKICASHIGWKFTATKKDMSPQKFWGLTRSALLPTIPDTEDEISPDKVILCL
T3 sequence (Q9Y616 whole entry, looked up): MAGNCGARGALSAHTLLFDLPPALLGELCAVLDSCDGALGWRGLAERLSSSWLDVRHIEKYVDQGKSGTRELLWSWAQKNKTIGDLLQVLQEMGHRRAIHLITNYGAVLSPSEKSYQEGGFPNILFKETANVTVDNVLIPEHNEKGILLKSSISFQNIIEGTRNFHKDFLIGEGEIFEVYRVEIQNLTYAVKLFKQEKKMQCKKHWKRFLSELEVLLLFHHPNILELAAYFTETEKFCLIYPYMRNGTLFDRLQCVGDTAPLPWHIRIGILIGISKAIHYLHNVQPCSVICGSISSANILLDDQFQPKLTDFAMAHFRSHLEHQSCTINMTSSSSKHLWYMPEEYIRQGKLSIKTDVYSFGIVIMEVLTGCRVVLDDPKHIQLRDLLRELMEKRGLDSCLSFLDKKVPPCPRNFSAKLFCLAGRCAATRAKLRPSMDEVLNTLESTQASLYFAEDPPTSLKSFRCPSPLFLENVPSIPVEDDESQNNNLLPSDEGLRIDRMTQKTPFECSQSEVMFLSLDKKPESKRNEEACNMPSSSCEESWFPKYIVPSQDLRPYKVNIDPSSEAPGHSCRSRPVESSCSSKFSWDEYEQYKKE
T2 sequence (P51617 whole entry, the tested form may be a part): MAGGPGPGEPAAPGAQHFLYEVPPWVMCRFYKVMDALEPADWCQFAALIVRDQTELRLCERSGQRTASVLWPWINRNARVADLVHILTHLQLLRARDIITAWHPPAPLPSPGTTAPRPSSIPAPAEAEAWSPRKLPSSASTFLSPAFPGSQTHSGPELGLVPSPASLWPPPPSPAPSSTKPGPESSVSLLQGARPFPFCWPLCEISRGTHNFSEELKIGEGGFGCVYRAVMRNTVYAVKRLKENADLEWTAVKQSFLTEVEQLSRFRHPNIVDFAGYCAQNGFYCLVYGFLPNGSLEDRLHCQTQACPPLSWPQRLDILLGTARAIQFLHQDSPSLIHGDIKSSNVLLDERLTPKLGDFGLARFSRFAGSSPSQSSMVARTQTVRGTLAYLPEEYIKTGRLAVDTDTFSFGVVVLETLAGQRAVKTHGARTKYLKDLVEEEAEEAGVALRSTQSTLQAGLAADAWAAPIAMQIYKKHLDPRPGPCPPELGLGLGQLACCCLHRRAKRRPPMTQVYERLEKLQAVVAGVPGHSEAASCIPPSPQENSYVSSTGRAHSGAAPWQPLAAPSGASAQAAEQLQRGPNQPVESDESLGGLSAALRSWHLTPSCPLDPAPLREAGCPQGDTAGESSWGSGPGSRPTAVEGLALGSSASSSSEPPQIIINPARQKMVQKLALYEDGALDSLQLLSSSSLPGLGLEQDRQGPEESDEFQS
Protein cereblon/Eukaryotic peptide chain release factor GTP-binding subunit ERF3A (Homo sapiens), sequence (P15170 whole entry, looked up): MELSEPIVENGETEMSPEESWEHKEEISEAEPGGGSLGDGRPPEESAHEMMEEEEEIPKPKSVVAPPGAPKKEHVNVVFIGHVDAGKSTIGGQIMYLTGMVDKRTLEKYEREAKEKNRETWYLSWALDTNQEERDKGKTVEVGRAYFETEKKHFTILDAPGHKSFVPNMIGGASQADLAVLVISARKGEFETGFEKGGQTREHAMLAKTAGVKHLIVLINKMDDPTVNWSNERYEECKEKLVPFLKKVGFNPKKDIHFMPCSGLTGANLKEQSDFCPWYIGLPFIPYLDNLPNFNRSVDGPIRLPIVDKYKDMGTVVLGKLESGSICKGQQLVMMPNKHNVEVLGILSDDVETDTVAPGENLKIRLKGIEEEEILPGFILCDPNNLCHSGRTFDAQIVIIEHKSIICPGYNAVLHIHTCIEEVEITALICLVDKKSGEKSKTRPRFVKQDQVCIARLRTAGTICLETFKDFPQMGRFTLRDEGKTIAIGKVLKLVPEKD
Protein cereblon/Eukaryotic peptide chain release factor GTP-binding subunit ERF3A (Homo sapiens), sequence (Q96SW2 whole entry, looked up): as the sequence (Q96SW2 whole entry, looked up) above
Cyclin-dependent kinase 19, sequence (Q9BWU1 whole entry): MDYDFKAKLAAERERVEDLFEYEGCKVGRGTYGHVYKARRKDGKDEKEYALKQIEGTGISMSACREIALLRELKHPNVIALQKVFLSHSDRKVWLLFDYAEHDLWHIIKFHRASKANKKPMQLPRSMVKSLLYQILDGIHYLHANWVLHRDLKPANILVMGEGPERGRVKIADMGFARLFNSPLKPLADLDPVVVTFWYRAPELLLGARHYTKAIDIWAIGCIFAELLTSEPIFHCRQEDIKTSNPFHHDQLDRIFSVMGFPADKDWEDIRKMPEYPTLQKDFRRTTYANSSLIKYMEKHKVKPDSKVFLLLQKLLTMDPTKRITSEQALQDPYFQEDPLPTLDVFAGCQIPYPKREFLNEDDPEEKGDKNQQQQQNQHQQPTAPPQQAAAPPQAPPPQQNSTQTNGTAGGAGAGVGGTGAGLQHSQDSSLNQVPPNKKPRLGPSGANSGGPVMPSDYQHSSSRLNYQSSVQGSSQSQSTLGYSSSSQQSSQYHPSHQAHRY
Cyclin-C/Cyclin-dependent kinase 19, sequence (Q9BWU1 whole entry): as above
Cyclin-C/Cyclin-dependent kinase 19, sequence (P24863 whole entry): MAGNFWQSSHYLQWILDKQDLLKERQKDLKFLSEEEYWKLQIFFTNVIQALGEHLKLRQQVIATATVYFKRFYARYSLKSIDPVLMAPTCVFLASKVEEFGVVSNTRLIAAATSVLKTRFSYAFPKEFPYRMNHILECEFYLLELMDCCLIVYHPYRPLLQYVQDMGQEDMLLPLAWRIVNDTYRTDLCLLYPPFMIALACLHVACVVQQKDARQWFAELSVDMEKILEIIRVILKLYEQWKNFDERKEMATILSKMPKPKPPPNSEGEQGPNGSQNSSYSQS
Protein cereblon, sequence (Q96SW2 whole entry): as the sequence (Q96SW2 whole entry, looked up) above
CDK8/Cyclin C, sequence (P49336 whole entry): as the sequence (P49336 whole entry) above
CDK8/Cyclin C, sequence (P24863 whole entry, further chain): as the sequence (P24863 whole entry) above
BDNF/NT-3 growth factors receptor (Homo sapiens), sequence (Q16620 32-822 limits assumed): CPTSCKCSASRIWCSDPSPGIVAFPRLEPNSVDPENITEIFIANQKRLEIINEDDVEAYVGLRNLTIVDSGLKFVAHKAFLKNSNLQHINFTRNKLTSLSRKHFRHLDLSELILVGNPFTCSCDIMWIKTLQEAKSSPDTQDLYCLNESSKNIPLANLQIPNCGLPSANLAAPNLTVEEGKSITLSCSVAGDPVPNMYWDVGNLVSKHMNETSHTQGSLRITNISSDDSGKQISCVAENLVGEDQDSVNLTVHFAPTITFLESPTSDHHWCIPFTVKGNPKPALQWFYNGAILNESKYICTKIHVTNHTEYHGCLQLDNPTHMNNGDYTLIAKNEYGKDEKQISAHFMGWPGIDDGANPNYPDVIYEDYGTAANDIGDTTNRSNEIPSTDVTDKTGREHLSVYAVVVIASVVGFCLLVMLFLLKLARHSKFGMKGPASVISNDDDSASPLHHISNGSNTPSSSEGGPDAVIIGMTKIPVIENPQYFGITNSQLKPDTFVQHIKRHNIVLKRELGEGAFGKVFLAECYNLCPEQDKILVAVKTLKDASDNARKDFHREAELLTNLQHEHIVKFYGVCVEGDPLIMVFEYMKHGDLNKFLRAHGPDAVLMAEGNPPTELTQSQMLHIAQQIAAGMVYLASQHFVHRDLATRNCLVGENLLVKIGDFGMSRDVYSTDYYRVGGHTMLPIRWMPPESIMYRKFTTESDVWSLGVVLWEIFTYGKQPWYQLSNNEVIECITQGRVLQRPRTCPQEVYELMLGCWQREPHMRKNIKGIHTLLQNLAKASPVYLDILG

In the case of `CC(C)c1ccn2ncnc(N[C@H]3CC[C@@H](N4CCN(C(=O)CCC(=O)N5CCC(CCN6CCN(c7ccc8c(c7)C(=O)N(C7CCC(=O)NC7=O)C8=O)CC6)CC5)CC4)CC3)c12` (stereo partly drawn), the IC50 on CDK8/Cyclin C is 36 nM; in [2] it was 2300 nM; in [5], 100 nM; in [11], 16 nM; on Protein cereblon it was 460 nM; in [20] it was 110 nM. In addition, the Kd in data set [1] is 780 nM; in data set [7], more than 30000 nM; in data set [8], 2800 nM; in [21], 1400 nM. Besides, the fold change (FC) in data set [3] is -1.8. For the same compound, the outcome in data set [4], in data set [16], in [18] and in [19] was inactive. The inhibition came to 69% in [6], 45% in [9], 57% in data set [12] and 82% in data set [17]. In addition, the figures for the Selectivity ratio in the data set on THP-1 [10] and in the data set on THP-1 [13] were more than 880 and 41, respectively. The same compound came in with a logD in [14] of 3.1. Further, the outcome in [15] was Active.
